# Columns and labels:
# DU145 prostate cancer = experiment: MTS cell viability assay, DU145 prostate cancer cell line; format: cell-based; details: DU145 prostate, 48 h; for Viability (% CTL) at 10 μM DU145 prostate: Table 2; for Viability % CTL DU145 prostate: Table 1, screened at 10 μM; for Viability % CTL DU145 prostate (10 μM ): Table 4
# Description: (§1) MTS assays were performed for cell viability. To determine if novel pyridopyrazine derivatives have antitumor activities, compounds were screened at 10 μM final concentration with A2058 melanoma and DU145 prostate cancer cell lines. Compounds #16 and #17 were selected to determine IC50 values against lung cancer cell lines, including A549, DMS273, H69, H513, H2461, DMS114, H358 and H2596. In this assay, cells (5000/well) were seeded in 96-well plates, incubated overnight at 37° C. in 5% CO2, and exposed to 10 μM of compounds or in a dose-dependent manner for 48 h. After 48 h treatment with compounds, MTS dye (20 μL/well) was added to 96-well plates. Viable cell numbers were determined by tetrazolium conversion to its formazan dye. Absorbance was measured at 490 nm using an automated ELISA plate reader. Dimethyl sulfoxide (DMSO) was used as the vehicle control. Each experiment was conducted in triplicate. IC50 values were determined using CalcuSyn software (Biosoft).
# A2058 melanoma = experiment: MTS cell viability assay, A2058 melanoma cell line; format: cell-based; details: 48 h; for Viability (% CTL) at 10 μM A2058 melanoma: Table 2, 10 μM; for Viability % CTL A2058 melanoma: Table 1, screened at 10 μM; for Viability % CTL A2058 melanoma (10 μM): Table 4, 10 μM
# Description: as §1
structure (smiles),measurement,setting,value
"Cc1nc2nc(Nc3ccccc3)cnc2cc1NC(=O)c1ccc([N+](=O)[O-])cc1 [Compound 10, N-(6-Methyl-3-(phenylamino)pyrido[2,3-b]pyrazin-7-yl)-4-nitrobenzamide]",Viability (% CTL) at 10 μM DU145 prostate,DU145 prostate cancer,97 % CTL
same,Viability (% CTL) at 10 μM A2058 melanoma,A2058 melanoma,86 % CTL
Cc1nc2nccnc2cc1NC(=O)c1ccc([N+](=O)[O-])cc1 [Compound 11A],Viability % CTL DU145 prostate,DU145 prostate cancer,106 % CTL
same,Viability % CTL A2058 melanoma,A2058 melanoma,87 % CTL
Cc1nc2nccnc2cc1NC(=O)CN(C)C [Compound 14A],Viability % CTL DU145 prostate,DU145 prostate cancer,101 % CTL
same,Viability % CTL A2058 melanoma,A2058 melanoma,106 % CTL
Cc1ccc(C(=O)Nc2cc3nccnc3nc2C)cc1 [Compound 08A],Viability % CTL DU145 prostate,DU145 prostate cancer,96 % CTL
same,Viability % CTL A2058 melanoma,A2058 melanoma,80 % CTL
"COc1cc(C(=O)Nc2cc3ncc(Nc4ccccc4)nc3nc2C)cc(OC)c1OC [Compound 11, 3,4,5-Trimethoxy-N-(6-methyl-3-(phenylamino)pyrido[2,3-b]pyrazin-7-yl)benzamide]",Viability (% CTL) at 10 μM DU145 prostate,DU145 prostate cancer,105 % CTL
same,Viability (% CTL) at 10 μM A2058 melanoma,A2058 melanoma,83 % CTL
Cc1nc2nccnc2cc1NC(=O)c1ccccc1 [Compound 06A],Viability % CTL DU145 prostate,DU145 prostate cancer,94 % CTL
same,Viability % CTL A2058 melanoma,A2058 melanoma,85 % CTL
Cc1nc2nc(Sc3ccccc3)cnc2cc1NC(=O)Nc1ccc(F)c(Cl)c1 [Compound 18B],Viability % CTL DU145 prostate,DU145 prostate cancer,124 % CTL
same,Viability % CTL A2058 melanoma,A2058 melanoma,83 % CTL
Cc1nc2nc(Oc3ccccc3)cnc2cc1N [Compound 56D],Viability % CTL DU145 prostate,DU145 prostate cancer,108 % CTL
same,Viability % CTL A2058 melanoma,A2058 melanoma,81 % CTL
Cc1nc2nc(Nc3ccccc3)cnc2cc1NC(=O)CNc1ccccc1 [Compound 26E],Viability (% CTL) at 10 μM DU145 prostate,DU145 prostate cancer,85 % CTL
same,Viability (% CTL) at 10 μM A2058 melanoma,A2058 melanoma,93 % CTL
Cc1nc2nc(Nc3ccccc3)cnc2cc1NC(=O)CN1CCN(C)CC1 [Compound 25E],Viability (% CTL) at 10 μM DU145 prostate,DU145 prostate cancer,83 % CTL
same,Viability (% CTL) at 10 μM A2058 melanoma,A2058 melanoma,85 % CTL
Cc1nc2nc(Sc3ccccc3)cnc2cc1NC(=O)c1ccccc1C(F)(F)F [Compound 16B],Viability % CTL DU145 prostate,DU145 prostate cancer,120 % CTL
same,Viability % CTL A2058 melanoma,A2058 melanoma,84 % CTL
"Cc1nc2nc(Nc3ccc(C(=O)O)cc3)cnc2cc1NC(=O)Nc1ccc(F)c(Cl)c1 [Compound 35, 4-((7-(3-(3-Chloro-4-fluorophenyl)ureido)-6-methylpyrido[2,3-b]pyrazin-3-yl)amino)benzoic acid]",Viability % CTL DU145 prostate (10 μM ),DU145 prostate cancer,82 % CTL
same,Viability % CTL A2058 melanoma (10 μM),A2058 melanoma,98 % CTL
"CC(=O)Nc1ccc(Nc2cnc3cc(NC(=O)Nc4cccc(C(F)(F)F)c4)c(C)nc3n2)cc1 [Compound 33, N-(4-((6-Methyl-7-(3-(3-(trifluoromethyl)phenyl)ureido)pyrido[2,3-b]pyrazin-3-yl)amino)phenyl)acetamide]",Viability % CTL DU145 prostate (10 μM ),DU145 prostate cancer,55 % CTL
same,Viability % CTL A2058 melanoma (10 μM),A2058 melanoma,109 % CTL
CSc1ccc(NC(=O)Nc2cc3ncc(Sc4ccccc4)nc3nc2C)cc1 [Compound 19B],Viability % CTL DU145 prostate,DU145 prostate cancer,113 % CTL
same,Viability % CTL A2058 melanoma,A2058 melanoma,89 % CTL
"Cc1nc2nc(Nc3ccc(C(=O)O)cc3)cnc2cc1NC(=O)Nc1cccc(C(F)(F)F)c1 [Compound 36, 4-((6-Methyl-7-(3-(3-(trifluoromethyl)phenyl)ureido)pyrido[2,3-b]pyrazin-3-yl)amino)benzoic acid]",Viability % CTL DU145 prostate (10 μM ),DU145 prostate cancer,77 % CTL
same,Viability % CTL A2058 melanoma (10 μM),A2058 melanoma,113 % CTL
"CC(=O)Nc1ccc(Nc2cnc3cc(NC(=O)Nc4ccc(F)c(Cl)c4)c(C)nc3n2)cc1 [Compound 32, N-(4-((7-(3-(3-Chloro-4-fluorophenyl)ureido)-6-methylpyrido[2,3-b]pyrazin-3-yl)amino)phenyl)acetamide]",Viability % CTL DU145 prostate (10 μM ),DU145 prostate cancer,76 % CTL
same,Viability % CTL A2058 melanoma (10 μM),A2058 melanoma,65 % CTL
"Cc1ccc(C(=O)Nc2cc3ncc(Nc4ccccc4)nc3nc2C)cc1 [Compound 9, 4-Methyl-N-(6-methyl-3-(phenylamino)pyrido[2,3-b]pyrazin-7-yl)benzamide]",Viability (% CTL) at 10 μM DU145 prostate,DU145 prostate cancer,82 % CTL
same,Viability (% CTL) at 10 μM A2058 melanoma,A2058 melanoma,66 % CTL

# Source: patent publication US11117894B2, “Pyridopyrazine compounds and uses thereof” (CITY OF HOPE, priority 2017, dated 2021)
